Among the data in paper PMC10652111, “Zymograph profiling reveals a divergent evolution of sirtuin that may originate from class III enzymes” (The Journal of Biological Chemistry, 2023) are HPLC deacylation assay values, retold here.

This test addresses T1, STM1221 (Salmonella enterica, UniProt P0A2F2).
T1 construct: gene cobB; expressed from pET28b in E. coli BL21, nickel-purified
T1 sequence (P0A2F2 1-273): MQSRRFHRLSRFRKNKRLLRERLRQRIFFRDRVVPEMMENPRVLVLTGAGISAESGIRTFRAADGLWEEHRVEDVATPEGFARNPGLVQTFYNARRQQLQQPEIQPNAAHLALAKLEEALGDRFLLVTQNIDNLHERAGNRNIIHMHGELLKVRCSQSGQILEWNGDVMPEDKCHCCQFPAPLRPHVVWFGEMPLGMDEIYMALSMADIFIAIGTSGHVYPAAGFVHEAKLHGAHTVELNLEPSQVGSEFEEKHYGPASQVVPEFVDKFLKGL
The test can be described thus: HPLC deacylation assay. The class given is biochemical. The settings on record: 1 mM NAD+, 1 mM acylated H3K27 13-mer peptide as co-substrate, 5 uM enzyme, 6 mM MgCl2, pH 8.0, 37 °C.

Molecules are shown by their SMILES.

On to `NC(=O)c1ccc[n+]([C@@H]2O[C@H](COP(=O)(O)OP(=O)(O)OC[C@H]3O[C@@H](n4cnc5c(N)ncnc54)[C@H](O)[C@@H]3O)[C@@H](O)[C@H]2O)c1` [NAD^+], for which the HPLC deacylation assay result was “The reactions without NAD^+ were used as the negative controls”.
